In brackets after ≈: the same amount, converted by molar mass. Where a name gives a salt, the structure may show the parent alone. A value given as a limit tells only on which side of the number the result lay.

Series [1] concerns Staphylococcus aureus Smith. Nature of the series: Antibacterial activity in vitro, minimal inhibitory concentration (two-fold agar dilution). It counts as cell-based. The method, then:
(§1) Antibacterial activity in vitro : A solution of the test compound in 0.01N-aqueous sodium hydrogen carbonate was applied to an agar plate by two-fold dilution method and the minimal inhibitory concentrations against Gram-negative and Gram-positive bacteria were measured according to the standard method of the Japan Society of Chemotherapy.

Series [2] has as its system Staphylococcus aureus 209P JC-1. The series is described as above. It counts as cell-based. The settings on record: Staphylococcus aureus 209P JC-1, agar dilution. On the procedure: as §1
A general note: In agar dilution the substance is mixed into plates at graded concentrations.

Series [3] is described as follows: Blood level at 15 minutes after oral administration to mice. The settings on record: 40 mg/kg oral; for concentration at 0.25 h: mouse, blood. It counts as in vivo, mouse. On the procedure:
The in vivo absorption rate of the compound I after oral administration was determined by administering a compound of the invention to mouse and measuring the blood level.
Blood level at 15 minutes after oral administration : A test compound (40 mg/kg) in a 5% suspension of arabic gum was administered to a mouse (weighing ca. 25 g) through an enteral tube. After 15 minutes, the blood in the heart cavity was taken and the concentration of the test compound was measured by the band culture method using Escherichia coli 7437.

The next series relates to Escherichia coli 7437. Nature of the series: Antibacterial activity in vitro, minimal inhibitory concentration (two-fold agar dilution). The settings on record: Escherichia coli 7437, agar dilution. Format: cell-based. On the procedure: as §1
The test system of another series is Morgania morganii SR9. The description is as above. It counts as cell-based. On the procedure:
as §1

The next series has as its system Escherichia coli SR377. The description is as above. Format: cell-based. The method, then: as §1
In series [4] the test system is Enterobacter cloacae SR233. Described as above. Format: cell-based. The method, then: as §1
In the next series the test system is Escherichia coli EC-14. Described as above. It counts as cell-based. The note with it: EC14; Escherichia coli EC-14, agar dilution. On the procedure: as §1
Another series has as its system Proteus vulgaris CN-329. The description is as above. The settings on record: CN329; Proteus vulgaris CN-329, agar dilution. It counts as cell-based. The method, then:
as §1

In the next series the test system is Proteus mirabilis PR4. The description is as above. It counts as cell-based. The method, then:
as §1

Series [5] concerns Serratia marcescens A13880. Described as above. It counts as cell-based. The method, then:
as §1

Series [6] concerns Pseudomonas aeruginosa A25619. The series is described as above. It counts as cell-based. The method, then:
as §1

For series [7], the system named is Serratia marcescens SR1005. Described as above. Format: cell-based. The method, then:
as §1

With `O=C(Cc1ccccc1)N[C@@H]1C(=O)N2C(C(=O)O)=C(SCSc3c[nH]nn3)CS[C@H]12` [Example 7-2, 7β-phenylacetylamino-3-(1,2,3-triazol-4-yl) thiomethylthio-3-cephem-4-carboxylic acid], the MIC in series [1] and in series [2] was 0.05 µg/mL (≈ 0.108 µM) each time. Also, the concentration at 0.25 h in series [3] is 15000 ng/mL.

Take `Cn1ncc(SCSC2=C(C(=O)O)N3C(=O)[C@@H](NC(=O)/C(=N\O)c4csc(N)n4)[C@H]3SC2)n1` [Example 7-18, 7μ-[(Z)-2-(2-aminothiazol-4-yl)-2-hydroxyiminoacetamido]-3-(2-methyl-1,2,3-triazol-4-yl)thiomethylthio-3 cephem-4-carboxylic acid]: in the series on Escherichia coli 7437, the MIC (as a rule, the lowest concentration that inhibits growth of the organism) is 0.02 µg/mL (≈ 0.0378 µM).

For the molecule `Nc1nc(/C(=N/O)C(=O)N[C@@H]2C(=O)N3C(C(=O)O)=C(SCSc4nncs4)CS[C@H]23)cs1` [Example 7-25, 7μ-[(Z)-2-(2-aminothiazol-4-yl)-2-hydroxyiminoacetamido]-3-(1,3,4-thiadiazol-2-ylthiomethylthio)-3-cephem-4-carboxylic acid], the MIC in the series on Morgania morganii SR9 came out at 0.1 µg/mL (≈ 0.188 µM); in the series with Escherichia coli SR377, 0.4 µg/mL (≈ 0.752 µM); in series [4], 0.4 µg/mL (≈ 0.752 µM).

With `C[C@H](O/N=C(\C(=O)N[C@@H]1C(=O)N2C(C(=O)O)=C(SCSc3c[nH]nn3)CS[C@H]12)c1csc(N)n1)C(=O)O` [Example 7-14, 7μ-(Z)-2-(2-aminothiazol-4-yl)-2-[(S)-1-sodiooxycarbonylethoxyimino]acetamido}-3-(1,2,3-triazol-4-ylthiomethylthio)-3-cephem-4-carboxylic acid sodium salt], the values for the MIC with Escherichia coli EC-14, against Proteus vulgaris CN-329 and in the series with Proteus mirabilis PR4 were 0.2 µg/mL, 0.006 µg/mL and 0.01 µg/mL, respectively.

Take `Nc1nc(/C(=N/O)C(=O)N[C@@H]2C(=O)N3C(C(=O)O)=C(SCSc4nn[nH]n4)CS[C@H]23)cs1` [Example 7-27, 7μ-[(Z) 2-(2-aminothiazol-4-yl)-2-hydroxyiminoacetyl]amino-3-(tetrazol-5-yl)thiomethylthio-3-cephem-4-carboxylic acid]: in the series with Escherichia coli 7437, the MIC amounted to 0.01 µg/mL (≈ 0.0194 µM).

In the case of `Nc1nc(/C(=N/O)C(=O)N[C@@H]2C(=O)N3C(C(=O)O)=C(SCSc4c[nH]nn4)CS[C@H]23)cs1` [Example 7-5], 0.8 µg/mL (≈ 1.55 µM) was the least that counted as inhibitory in series [4] (MIC). In addition, in the series with Escherichia coli 7437, inhibition of growth (MIC) required 0.02 µg/mL (≈ 0.0389 µM). In addition, in series [3], the “blood level on oral administration” value is 29600 ng/mL and the concentration at 0.25 h was found to be 29600 ng/mL.

`O=C(O)C1=C(SCSc2c[nH]nn2)CS[C@@H]2[C@H](NC(=O)[C@H](O)c3ccccc3)C(=O)N12` [Example 7-3, 7β-D-mandelamido-3-(1,2,3-triazol-4-ylthiomethylthio)-3-cephem-4-carboxylic acid] yielded a concentration at 0.25 h in series [3] of 18500 ng/mL.

Take `Cn1nnnc1SCSC1=C(C(=O)O)N2C(=O)[C@@H](NC(=O)/C(=N\O)c3csc(N)n3)[C@H]2SC1` [Example 7-28, 7μ-[(Z)-2-(2-aminothiazol-4-yl)-2-hydroxyiminoacetyl]amino-3-(1-methyl-5-tetrazolyl) thiomethylthio-3-cephem-4-carboxylic acid]: the MIC against Morgania morganii SR9 came out at 0.1 µg/mL (≈ 0.189 µM); against Escherichia coli SR377, 0.4 µg/mL (≈ 0.755 µM); in series [4] it was 0.8 µg/mL (≈ 1.51 µM); in the series with Escherichia coli 7437, 0.02 µg/mL (≈ 0.0378 µM).

The molecule `O=C(CSC(F)F)N[C@@H]1C(=O)N2C(C(=O)O)=C(SCSc3c[nH]nn3)CS[C@H]12` [Example 7-1, 7β-difluoromethylthioacetamido-3-(1,2,3-triazol-4-ylthiomethylthio)-3-cephem-4-carboxylic acid] showed an MIC in series [1] of 0.1 µg/mL (≈ 0.213 µM). In series [3], this molecule showed a concentration at 0.25 h of 28000 ng/mL.

Turning to `CC(C)(O/N=C(\C(=O)N[C@@H]1C(=O)N2C(C(=O)O)=C(SCSc3c[nH]nn3)CS[C@H]12)c1csc(N)n1)C(=O)O` [Example 7-16, 7μ-[(Z)-2-(2-aminothiazol-4-yl) -2-(1-carboxy-1-methylethoxyimino)acetamido]-3-(1,2,3-triazol-4-ylthiomethylthio)-3-cephem-4-carboxylic acid], the MIC in series [5] worked out at 0.8 µg/mL (≈ 1.33 µM); in [6] it was 1.6 µg/mL (≈ 2.66 µM); against Proteus mirabilis PR4 it was 0.01 µg/mL (≈ 0.0166 µM).

With `Nc1nc(C(=O)C(=O)N[C@@H]2C(=O)N3C(C(=O)O)=C(SCSc4c[nH]nn4)CS[C@H]23)cs1` [Example 7-11, 7β-[2-(2-aminothiazol-4-yl)glyoxylylamido]-3-(1,2,3-triazol-4-ylthiomethylthio) -3-cephem-4-carboxylic acid], the lowest concentration to inhibit growth in the series on Escherichia coli EC-14 (MIC) was 0.4 µg/mL (≈ 0.801 µM).

Consider `Nc1nc(/C(=N/O)C(=O)N[C@@H]2C(=O)N3C(C(=O)O)=C(SCSc4cnns4)CS[C@H]23)cs1` [Example 7-24, 7μ-[(Z)-2-(2-aminothiazol-4-yl)-2-hydroxyiminoacetyl]amino-3-(1,2,3-thiadiazol-5-yl) thiomethylthio-3-cephem-4-carboxylic acid], for which the MIC in the series with Escherichia coli SR377 amounted to 0.4 µg/mL (≈ 0.752 µM); in [4], 0.4 µg/mL (≈ 0.752 µM); against Escherichia coli 7437, 0.01 µg/mL (≈ 0.0188 µM).

On to `Nc1nc(CC(=O)N[C@@H]2C(=O)N3C(C(=O)O)=C(SCSc4c[nH]nn4)CS[C@H]23)cs1` [Example 7-10, 7β-[2-(2-aminothiazol-4yl)acetamido]-3-(1,2,3-triazol-4-ylthiomethylthio)-3-cephem-4-carboxylic acid], for which the values for the MIC (in series [1]; in the series with Escherichia coli EC-14; against Proteus vulgaris CN-329) were 0.1 µg/mL (≈ 0.206 µM), 0.8 µg/mL (≈ 1.65 µM) and 0.8 µg/mL (≈ 1.65 µM), respectively. This molecule also registered a concentration at 0.25 h in series [3] of 17100 ng/mL.

In the case of `Nc1nc(/C(=N/O)C(=O)N[C@@H]2C(=O)N3C(C(=O)O)=C(SCSc4ccccn4)CS[C@H]23)cs1` [Example 7-30], the MIC in the series on Escherichia coli 7437 was determined as 0.01 µg/mL (≈ 0.0191 µM). In [3], this molecule yielded a concentration at 0.25 h of 18700 ng/mL.

With `Nc1nc(/C(=N/OCC(=O)O)C(=O)N[C@@H]2C(=O)N3C(C(=O)O)=C(SCSc4c[nH]nn4)CS[C@H]23)cs1` [Example 7-13, 7μ-[(Z)-2-(2-aminothiazol-4-yl)-2-(sodiooxycarbonylmethoxyimino)acetamido]-3-(1,2,3-triazol-4-ylthiomethylthio) -3-cephem-4-carboxylic acid sodium salt], the MIC in the series on Proteus vulgaris CN-329 and with Proteus mirabilis PR4 was 0.006 µg/mL in each case.

For the molecule `Cn1nncc1SCSC1=C(C(=O)O)N2C(=O)[C@@H](NC(=O)/C(=N\O)c3csc(N)n3)[C@H]2SC1` [Example 7-19], the figures for the MIC (in series [4]; with Escherichia coli 7437) were 0.4 µg/mL (≈ 0.757 µM) and 0.02 µg/mL (≈ 0.0378 µM), respectively.

Turning to `C=C(O/N=C(\C(=O)N[C@@H]1C(=O)N2C(C(=O)O)=C(SCSc3c[nH]nn3)CS[C@H]12)c1csc(N)n1)C(=O)O` [Example 7-15, 7μ-[(Z)-2-(2-aminothiazol-4-yl)-2-(1-carboxyvinyloxyimino)acetamido]-3-(1,2,3-triazol-4-ylthiomethylthio)-3-cephem-4-carboxylic acid], the figures for the MIC (in series [7]; in the series with Proteus mirabilis PR4) were 0.8 µg/mL (≈ 1.37 µM) and < 0.003 µg/mL, respectively.

`CO/N=C(\C(=O)N[C@@H]1C(=O)N2C(C(=O)O)=C(SCSc3c[nH]nn3)CS[C@H]12)c1csc(N)n1` [Example 7-6, 7β-(Z)-2-(2-aminothiazol-4-yl)-2-methoxyiminoacetyl]amino-3-(1,2,3-triazol-4-yl) thiomethylthio-3-cephem-4-carboxylic acid sodium salt]: the MIC was determined as 0.1 µg/mL against Morgania morganii SR9 and 0.02 µg/mL against Proteus vulgaris CN-329. The same molecule displayed a concentration at 0.25 h in [3] of 15000 ng/mL.

For the molecule `Cc1nnc(SCSC2=C(C(=O)O)N3C(=O)[C@@H](NC(=O)/C(=N\O)c4csc(N)n4)[C@H]3SC2)s1` [Example 7-26, 7μ-[(Z)-2-(2-aminothiazol-4-yl)-2-hydroxyiminoacetamido]-3-(2-methyl-1,3,4-thiadiazol-5-ylthiomethylthio)-3-cephem-4-carboxylic acid], the MIC in the series on Morgania morganii SR9 came out at 0.05 µg/mL (≈ 0.0916 µM); in the series with Escherichia coli SR377, 0.8 µg/mL (≈ 1.47 µM); in series [4], 0.8 µg/mL (≈ 1.47 µM); against Escherichia coli 7437, 0.02 µg/mL (≈ 0.0367 µM).

Consider `Nc1nc(/C(=N/O)C(=O)N[C@@H]2C(=O)N3C(C(=O)O)=C(SCSCc4c[nH]nn4)CS[C@H]23)cs1` [Example 6-1, 7β-[(Z)-2-(2-aminothiazol-4-yl) -2-hydroxyiminoacetamido]-3-(1,2,3-triazol-4-ylmethylthiomethylthio) -3-cephem-4-carboxylic acid], for which the MIC is 0.1 µg/mL (≈ 0.189 µM) with Morgania morganii SR9 and 0.8 µg/mL (≈ 1.51 µM) in [4]. Besides, the concentration at 0.25 h in series [3] was 12100 ng/mL.

`C=CCO/N=C(\C(=O)N[C@@H]1C(=O)N2C(C(=O)O)=C(SCSc3c[nH]nn3)CS[C@H]12)c1csc(N)n1` [Example 7-8, 7β-[(Z)-2-(2-aminothiazol-4-yl)-2-(2-propenyloxyimino)acetamido]-3-(1,2,3-triazol-4-ylthiomethylthio) -3-cephem-4-carboxylic acid]: the MIC against Escherichia coli EC-14 was 0.4 µg/mL (≈ 0.721 µM); in series [4], 0.8 µg/mL (≈ 1.44 µM).

On to `Nc1nc(/C(=N/OC2CCCC2)C(=O)N[C@@H]2C(=O)N3C(C(=O)O)=C(SCSc4c[nH]nn4)CS[C@H]23)cs1` [Example 7-7, 7β-[(Z)-2-(2-aminothiazol-4-yl)-2-cyclopentyloxyiminoacetamido]-3-(1,2,3-triazol-4-ylthiomethylthio)-3-cephem-4-carboxylic acid], for which the MIC (with Escherichia coli EC-14; in series [6]) was 0.8 µg/mL (≈ 1.37 µM) throughout.

(Values after patent US5214037A, “Thioalkylthio cephalosporin derivatives” (Shionogi & Co., Ltd., priority 1990, dated 1993).)
